Key:
Format in all cases: in vivo
[1] = test system: redroot pigweed (Amaranthus retroflexus, AMARE); test: Pre-emerge test, greenhouse herbicide activity screening; conditions: pre-emerge, phytotoxicity rating 0-100 at 14 days after application
In short: (§1)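 Compounds in acetone were track-sprayed at 187 l/ha, 15–1000 g ai/ha, onto sandy loam pots. Pre-emerge seeds were sown one day before spraying, with surface watering afterwards. Post-emerge plants were at the 2–3 leaf stage and sprayed with 0.25% v/v non-ionic surfactant. Injury was rated 0–100 at 14 days.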

[2] = test system: sicklepod (Cassia obtusifolia, CASOB); test: Post-emerge test, greenhouse herbicide activity screening; conditions: post-emerge, phytotoxicity rating 0-100 at 14 days after application
In short: (§2)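 Applied at 15–1000 g ai/ha from acetone in 187 l/ha spray volume. Post-emergence applications included 0.25% v/v non-ionic surfactant and reached plants sown 8–21 days before. Pre-emergence applications were incorporated by surface watering. Efficacy or crop damage was rated on a 0–100 scale after 14 days.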

[3] = test system: redroot pigweed (Amaranthus retroflexus, AMARE); test: as above; conditions: post-emerge, phytotoxicity rating 0-100 at 14 days after application
In short: as §2

[4] = test system: large crabgrass (Digitaria sanguinalis, DIGSA); test: as above; conditions: post-emerge, phytotoxicity rating 0-100 at 14 days after application
In short: as §2

[5] = test system: lambsquarters (Chenopodium album, CHEAL); test: as above; conditions: post-emerge, phytotoxicity rating 0-100 at 14 days after application
In short: as §2

[6] = test system: johnsongrass (Sorghum halepense, SORHA); test: as above; conditions: post-emerge, phytotoxicity rating 0-100 at 14 days after application
In short: as §2

[7] = test system: velvetleaf (Abutilon theophrasti, ABUTH); test: as above; conditions: post-emerge, phytotoxicity rating 0-100 at 14 days after application
In short: as §2

[8] = test system: ivyleaf morningglory (Ipomoea hederacea, IPOHE); test: as above; conditions: post-emerge, phytotoxicity rating 0-100 at 14 days after application
In short: as §2

[9] = test system: green foxtail (Setaria viridis, SETVI); test: as above; conditions: post-emerge, phytotoxicity rating 0-100 at 14 days after application
In short: as §2

[10] = test system: field corn (Zea mays L., var. Dekalb 535, CORN); test: Pre-emerge test, crop safety; conditions: crop damage, pre-emerge, phytotoxicity rating 0-100 at 14 days after application
In short: as §1

[11] = test system: upland rice (Oryza sp., var. Tebonnet, RICE); test: Pre-emerge test, crop safety; conditions: crop damage, pre-emerge, phytotoxicity rating 0-100 at 14 days after application
In short: as §1

[12] = test system: sicklepod (Cassia obtusifolia, CASOB); test: Pre-emerge test, greenhouse herbicide activity screening; conditions: pre-emerge, phytotoxicity rating 0-100 at 14 days after application
In short: (§3)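 Sandy loam pots; pre-emerge: sown 1 d pre-spray, surface-watered after, then bottom-watered. Post-emerge: sown 8–21 d before, 2–3 leaf stage, + 0.25% v/v NIS, bottom-watered. Acetone, 187 l/ha track spray, 15–1000 g ai/ha. 0–100 injury score, day 14.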

[13] = test system: large crabgrass (Digitaria sanguinalis, DIGSA); test: as above; conditions: pre-emerge, phytotoxicity rating 0-100 at 14 days after application
In short: as §3

[14] = test system: lambsquarters (Chenopodium album, CHEAL); test: as above; conditions: pre-emerge, phytotoxicity rating 0-100 at 14 days after application
In short: as §3

[15] = test system: johnsongrass (Sorghum halepense, SORHA); test: as above; conditions: pre-emerge, phytotoxicity rating 0-100 at 14 days after application
In short: as §3

[16] = test system: velvetleaf (Abutilon theophrasti, ABUTH); test: as above; conditions: pre-emerge, phytotoxicity rating 0-100 at 14 days after application
In short: as §3

[17] = test system: barnyardgrass (Echinochloa crus-galli, ECHCG); test: as above; conditions: pre-emerge, phytotoxicity rating 0-100 at 14 days after application
In short: as §3

[18] = test system: ivyleaf morningglory (Ipomoea hederacea, IPOHE); test: as above; conditions: pre-emerge, phytotoxicity rating 0-100 at 14 days after application
In short: as §3

[19] = test system: green foxtail (Setaria viridis, SETVI); test: as above; conditions: pre-emerge, phytotoxicity rating 0-100 at 14 days after application
In short: as §3

[20] = test system: field corn (Zea mays L., var. Dekalb 535, CORN); test: Post-emerge test, crop safety; conditions: post-emerge, crop damage rating 0-100 at 14 days after application
In short: as §3

[21] = test system: upland rice (Oryza sp., var. Tebonnet, RICE); test: Post-emerge test, crop safety; conditions: post-emerge, crop damage rating 0-100 at 14 days after application
In short: as §3

## COc1c(Cl)cc(F)c(N2C(=O)C3=C(CCCC3)C2=O)c1NC(=O)C=Cc1ccccc1 [8-31]
[1]; rate 63 g ai/ha
  Pre-emerge Herbicidal Activity AMARE: 90
[1]; rate 250 g ai/ha
  Pre-emerge Herbicidal Activity AMARE: 100
[2]; 63 g ai/ha
  Post-emerge Herbicidal Activity CASOB: 60
[2]; 250 g ai/ha
  Post-emerge Herbicidal Activity CASOB: 80
[3]; 63 g ai/ha
  Post-emerge Herbicidal Activity AMARE: 100
[3]; 250 g ai/ha
  Post-emerge Herbicidal Activity AMARE: 100
[4]; 63 g ai/ha
  Post-emerge Herbicidal Activity DIGSA: 10
[4]; 250 g ai/ha
  Post-emerge Herbicidal Activity DIGSA: 30
[5]; 63 g ai/ha
  Post-emerge Herbicidal Activity CHEAL: 100
[5]; 250 g ai/ha
  Post-emerge Herbicidal Activity CHEAL: 100
[6]; 63 g ai/ha
  Post-emerge Herbicidal Activity SORHA: 10
[6]; 250 g ai/ha
  Post-emerge Herbicidal Activity SORHA: 30
[7]; 63 g ai/ha
  Post-emerge Herbicidal Activity ABUTH: 100
[7]; 250 g ai/ha
  Post-emerge Herbicidal Activity ABUTH: 100
[8]; 63 g ai/ha
  Post-emerge Herbicidal Activity IPOHE: 100
[8]; 250 g ai/ha
  Post-emerge Herbicidal Activity IPOHE: 100
[9]; 63 g ai/ha
  Post-emerge Herbicidal Activity SETVI: 20
[9]; 250 g ai/ha
  Post-emerge Herbicidal Activity SETVI: 20
[10]; rate 63 g ai/ha
  Pre-emerge Herbicidal Activity CORN: 0
[10]; rate 250 g ai/ha
  Pre-emerge Herbicidal Activity CORN: 10
[11]; rate 63 g ai/ha
  Pre-emerge Herbicidal Activity RICE: 0
[11]; rate 250 g ai/ha
  Pre-emerge Herbicidal Activity RICE: 30
[12]; rate 63 g ai/ha
  Pre-emerge Herbicidal Activity CASOB: 0
[12]; rate 250 g ai/ha
  Pre-emerge Herbicidal Activity CASOB: 20
[13]; rate 63 g ai/ha
  Pre-emerge Herbicidal Activity DIGSA: 0
[13]; rate 250 g ai/ha
  Pre-emerge Herbicidal Activity DIGSA: 10
[14]; rate 63 g ai/ha
  Pre-emerge Herbicidal Activity CHEAL: 100
[14]; rate 250 g ai/ha
  Pre-emerge Herbicidal Activity CHEAL: 100
[15]; rate 63 g ai/ha
  Pre-emerge Herbicidal Activity SORHA: 0
[15]; rate 250 g ai/ha
  Pre-emerge Herbicidal Activity SORHA: 10
[16]; rate 63 g ai/ha
  Pre-emerge Herbicidal Activity ABUTH: 60
[16]; rate 250 g ai/ha
  Pre-emerge Herbicidal Activity ABUTH: 95
[17]; rate 63 g ai/ha
  Pre-emerge Herbicidal Activity ECHCG: 0
[17]; rate 250 g ai/ha
  Pre-emerge Herbicidal Activity ECHCG: 0
[18]; rate 63 g ai/ha
  Pre-emerge Herbicidal Activity IPOHE: 0
[18]; rate 250 g ai/ha
  Pre-emerge Herbicidal Activity IPOHE: 30
[19]; rate 63 g ai/ha
  Pre-emerge Herbicidal Activity SETVI: 10
[19]; rate 250 g ai/ha
  Pre-emerge Herbicidal Activity SETVI: 10
[20]; 63 g ai/ha
  Post-emerge Herbicidal Activity CORN: 10
[20]; 250 g ai/ha
  Post-emerge Herbicidal Activity CORN: 10
[21]; 63 g ai/ha
  Post-emerge Herbicidal Activity RICE: 45
[21]; 250 g ai/ha
  Post-emerge Herbicidal Activity RICE: 30

From patent publication US6355799B1, “Substituted benzene compounds, process for their preparation, and herbicidal and defoliant compositions containing them” (ISK Americas Incorporated, priority 1997, dated 2002)
